Data on twelve compounds can be found in patent US20240116985A1, “STAPLED PEPTIDES AND METHODS THEREOF” (priority 2020, published 2024).

This experiment has as its target T1, full-length beta-Catenin (Uniprot ID P35222) (Homo sapiens, UniProt P35222).
T1 construct: 10 nM full-length beta-Catenin (Uniprot ID P35222)
T1 sequence (P35222 1-781): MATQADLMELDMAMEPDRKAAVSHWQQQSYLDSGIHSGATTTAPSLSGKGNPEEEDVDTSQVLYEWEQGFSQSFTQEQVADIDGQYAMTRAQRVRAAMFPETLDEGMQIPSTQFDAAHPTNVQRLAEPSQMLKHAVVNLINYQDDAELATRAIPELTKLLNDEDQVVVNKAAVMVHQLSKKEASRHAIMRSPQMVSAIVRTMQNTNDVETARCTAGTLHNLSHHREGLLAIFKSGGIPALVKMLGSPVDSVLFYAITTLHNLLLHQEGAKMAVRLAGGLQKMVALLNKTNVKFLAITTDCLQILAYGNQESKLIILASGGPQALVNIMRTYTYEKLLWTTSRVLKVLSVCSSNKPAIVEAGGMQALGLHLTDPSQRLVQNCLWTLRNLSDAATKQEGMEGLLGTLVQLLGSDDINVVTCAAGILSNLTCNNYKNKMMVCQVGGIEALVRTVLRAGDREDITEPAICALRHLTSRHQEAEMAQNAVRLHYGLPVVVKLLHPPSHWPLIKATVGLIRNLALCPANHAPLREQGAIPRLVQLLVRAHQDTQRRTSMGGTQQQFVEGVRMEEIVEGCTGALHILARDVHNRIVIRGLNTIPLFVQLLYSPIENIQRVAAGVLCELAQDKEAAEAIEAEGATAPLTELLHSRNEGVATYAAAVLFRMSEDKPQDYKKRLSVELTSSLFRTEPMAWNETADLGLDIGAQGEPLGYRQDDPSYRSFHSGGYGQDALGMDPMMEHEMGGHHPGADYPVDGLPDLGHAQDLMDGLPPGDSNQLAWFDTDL
Nature of the experiment: Fluorescence polarization IC50 (beta-catenin / 5FAM-TCF4 10-53 competition). The conditions noted are these: fluorescence polarization; read-out: beta-Catenin FP IC50. The format is binding.

Turning to `CC(=O)N1CCC[C@]12CC=CCCCC1(CCCC=CCCCOC(=O)N3CC[C@@](C(=O)N[C@@H](Cc4ccsc4)C(=O)N[C@@H](Cc4csc5ccccc45)C(=O)N[C@@H](CCCNC(=N)N)C(N)=O)(C3)NC(=O)[C@H](CC(N)=O)NC(=O)[C@H](Cc3ccccc3)NC(=O)[C@H](C)NC(=O)[C@H](C)NC(=O)[C@H]([C@@H](C)O)NC(=O)[C@H](CC(N)=O)NC1=O)NC(=O)[C@H](CC(C)(C)C)NC(=O)[C@H](CC(=O)O)NC2=O` (stereo partly drawn) [I-1743, Ac-PL3-Asp-Npg-B5-Asn-Thr-Ala-Ala-Phe-Asn-PyrS2-3Thi-BztA-Arg-NH2], the IC50 (as a rule, the concentration that gives 50% inhibition) is 469 nM.

On to `CC(=O)N1CCC[C@]12CC=CCCCC1(CCCC=CCCCOC(=O)N3CC[C@@](C(=O)N[C@@H](Cc4ccsc4)C(=O)N[C@@H](Cc4csc5ccccc45)C(=O)N[C@@H](Cc4ccccc4)C(N)=O)(C3)NC(=O)[C@H](CC(N)=O)NC(=O)[C@H](Cc3ccccc3)NC(=O)[C@H](C)NC(=O)[C@H](C)NC(=O)[C@H]([C@@H](C)O)NC(=O)[C@H](CC(N)=O)NC1=O)NC(=O)[C@H](CC(C)(C)C)NC(=O)[C@H](CC(=O)O)NC2=O` (stereo partly drawn) [I-1744, Ac-PL3-Asp-Npg-B5-Asn-Thr-Ala-Ala-Phe-Asn-PyrS2-3Thi-BztA-Phe-NH2], for which the IC50 was determined as 363 nM. Consider `CC(=O)N1CCC[C@]12CC=CCCCC1(CCCC=CCCCOC(=O)N3CC[C@@](C(=O)N[C@@H](Cc4ccsc4)C(=O)N[C@@H](Cc4csc5ccccc45)C(=O)N[C@H](C(N)=O)[C@@H](C)O)(C3)NC(=O)[C@H](CC(N)=O)NC(=O)[C@H](Cc3ccccc3)NC(=O)[C@H](C)NC(=O)[C@H](C)NC(=O)[C@H]([C@@H](C)O)NC(=O)[C@H](CC(N)=O)NC1=O)NC(=O)[C@H](CC(C)(C)C)NC(=O)[C@H](CC(=O)O)NC2=O` (stereo partly drawn) [I-1745, Ac-PL3-Asp-Npg-B5-Asn-Thr-Ala-Ala-Phe-Asn-PyrS2-3Thi-BztA-Thr-NH2], for which the half-inhibitory concentration (IC50) amounted to 402 nM. With `CC(=O)N1CCC[C@]12CC=CCCCC1(CCCC=CCCCOC(=O)N3CC[C@@](C(=O)N[C@@H](Cc4ccsc4)C(=O)N[C@@H](Cc4csc5ccccc45)C(=O)N[C@@H](CC(N)=O)C(N)=O)(C3)NC(=O)[C@H](CC(N)=O)NC(=O)[C@H](Cc3ccccc3)NC(=O)[C@H](C)NC(=O)[C@H](C)NC(=O)[C@H]([C@@H](C)O)NC(=O)[C@H](CC(N)=O)NC1=O)NC(=O)[C@H](CC(C)(C)C)NC(=O)[C@H](CC(=O)O)NC2=O` (stereo partly drawn) [I-1746, Ac-PL3-Asp-Npg-B5-Asn-Thr-Ala-Ala-Phe-Asn-PyrS2-3Thi-BztA-Asn-NH2], the concentration for half-maximal inhibition (IC50) was 235 nM.

As for `CC(=O)N1CCC[C@]12CC=CCCCC1(CCCC=CCCCOC(=O)N3CC[C@@](C(=O)N[C@@H](Cc4ccsc4)C(=O)N[C@@H](Cc4csc5ccccc45)C(=O)N[C@@H](Cc4ccccc4)C(N)=O)(C3)NC(=O)[C@H](CC(C)C)NC(=O)[C@H](Cc3ccccc3)NC(=O)[C@H](C)NC(=O)[C@H](C)NC(=O)[C@H](CN(CC(=O)O)CC(F)(F)F)NC(=O)[C@H](CC(=O)O)NC1=O)NC(=O)[C@H](CC(C)(C)C)NC(=O)[C@H](CC(=O)O)NC2=O` (stereo partly drawn) [I-1749, Ac-PL3-Asp-Npg-B5-Asp-TfeGA-Ala-Ala-Phe-Leu-PyrS2-3Thi-BztA-Phe-NH2], the concentration for half-maximal inhibition (IC50) is 145 nM. Regarding `CC(=O)N1CCC[C@]12CC=CCCCC1(CCCC=CCCCOC(=O)N3CC[C@@](C(=O)N[C@@H](Cc4ccsc4)C(=O)N[C@@H](Cc4csc5ccccc45)C(=O)N[C@H](C(N)=O)C(C)C)(C3)NC(=O)[C@H](CC(C)C)NC(=O)[C@H](Cc3ccccc3)NC(=O)[C@H](C)NC(=O)[C@H](C)NC(=O)[C@H](CN(CC(=O)O)CC(F)(F)F)NC(=O)[C@H](CC(=O)O)NC1=O)NC(=O)[C@H](CC(C)(C)C)NC(=O)[C@H](CC(=O)O)NC2=O` (stereo partly drawn) [I-1751, Ac-PL3-Asp-Npg-B5-Asp-TfeGA-Ala-Ala-Phe-Leu-PyrS2-3Thi-BztA-Val-NH2], the IC50 is 104 nM. The result for `CC(=O)N1CCC[C@]12CC=CCCCC1(CCCC=CCCCOC(=O)N3CC[C@@](C(=O)N[C@@H](Cc4ccsc4)C(=O)N[C@@H](Cc4csc5ccccc45)C(=O)N[C@H](C(N)=O)C(C)C)(C3)NC(=O)[C@H](CC(C)C)NC(=O)[C@H](Cc3ccccc3)NC(=O)[C@H](C)NC(=O)[C@H](C)NC(=O)[C@H](CN(CC(=O)O)CC(F)(F)F)NC(=O)[C@H](CC(=O)O)NC1=O)NC(=O)[C@H](CC(C)(C)C)NC(=O)[C@H](CC(=O)O)NC2=O` (stereo partly drawn) [I-1752, Ac-PL3-Asp-Npg-B5-Asp-TfeGA-Ala-Ala-Phe-Leu-PyrS2-3Thi-BztA-Val-NH2] reads 87 nM; that for `CC(=O)N1CCC[C@]12CCCCCCC1(CCCCCCCCOC(=O)N3CC[C@@](C(=O)N[C@@H](Cc4ccsc4)C(=O)N[C@@H](Cc4csc5ccccc45)C(=O)N[C@@H](CC(C)C)C(N)=O)(C3)NC(=O)[C@H](CC(C)C)NC(=O)[C@H](Cc3ccccc3)NC(=O)[C@H](C)NC(=O)[C@H](C)NC(=O)[C@H](CN(CC(=O)O)CC(F)(F)F)NC(=O)[C@H](CC(=O)O)NC1=O)NC(=O)[C@H](CC(C)(C)C)NC(=O)[C@H](CC(=O)O)NC2=O` (stereo partly drawn) [I-1753, Ac-PL3-Asp-Npg-B5-Asp-TfeGA-Ala-Ala-Phe-Leu-PyrS2-3Thi-BztA-Leu-NH2], 802 nM.

Regarding `CC(=O)N1CCC[C@]12CCCCCCC1(CCCCCCCCOC(=O)N3CC[C@@](C(=O)N[C@@H](Cc4ccsc4)C(=O)N[C@@H](Cc4csc5ccccc45)C(=O)N[C@@H](CC(C)C)C(N)=O)(C3)NC(=O)[C@H]([C@@H](C)O)NC(=O)[C@H](Cc3ccccc3)NC(=O)[C@H](C)NC(=O)[C@H](C)NC(=O)[C@H](CN(CC(=O)O)CC(F)(F)F)NC(=O)[C@H](CC(=O)O)NC1=O)NC(=O)[C@H](CC(C)(C)C)NC(=O)[C@H](CC(=O)O)NC2=O` (stereo partly drawn) [I-1754, Ac-PL3-Asp-Npg-B5-Asp-TfeGA-Ala-Ala-Phe-Thr-PyrS2-3Thi-BztA-Leu-NH2], the IC50 turned out to be 660 nM.

Take `CC(=O)N1CCC[C@]12CCCCCCC1(CCCCCCCCOC(=O)N3CC[C@@](C(=O)N[C@@H](Cc4ccsc4)C(=O)N[C@@H](Cc4csc5ccccc45)C(=O)N[C@@H](Cc4ccccc4)C(N)=O)(C3)NC(=O)[C@H](CC(C)C)NC(=O)[C@H](Cc3ccccc3)NC(=O)[C@H](C)NC(=O)[C@H](C)NC(=O)[C@H](CN(CC(=O)O)CC(F)(F)F)NC(=O)[C@H](CC(=O)O)NC1=O)NC(=O)[C@H](CC(C)(C)C)NC(=O)[C@H](CC(=O)O)NC2=O` (stereo partly drawn) [I-1755, Ac-PL3-Asp-Npg-B5-Asp-TfeGA-Ala-Ala-Phe-Leu-PyrS2-3Thi-BztA-Phe-NH2]: the IC50 was found to be 570 nM.

With `CC(=O)N1CCC[C@]12CCCCCCC1(CCCCCCCCOC(=O)N3CC[C@@](C(=O)N[C@@H](Cc4ccsc4)C(=O)N[C@@H](Cc4csc5ccccc45)C(=O)N[C@@H](Cc4ccccc4)C(N)=O)(C3)NC(=O)[C@H]([C@@H](C)O)NC(=O)[C@H](Cc3ccccc3)NC(=O)[C@H](C)NC(=O)[C@H](C)NC(=O)[C@H](CN(CC(=O)O)CC(F)(F)F)NC(=O)[C@H](CC(=O)O)NC1=O)NC(=O)[C@H](CC(C)(C)C)NC(=O)[C@H](CC(=O)O)NC2=O` (stereo partly drawn) [I-1756, Ac-PL3-Asp-Npg-B5-Asp-TfeGA-Ala-Ala-Phe-Thr-PyrS2-3Thi-BztA-Phe-NH2], the IC50 came to 329 nM. The result for `CC(=O)N1CCC[C@]12CCCCCCC1(CCCCCCCCOC(=O)N3CC[C@@](C(=O)N[C@@H](Cc4ccsc4)C(=O)N[C@@H](Cc4csc5ccccc45)C(=O)N[C@H](C(N)=O)C(C)C)(C3)NC(=O)[C@H](CC(C)C)NC(=O)[C@H](Cc3ccccc3)NC(=O)[C@H](C)NC(=O)[C@H](C)NC(=O)[C@H](CN(CC(=O)O)CC(F)(F)F)NC(=O)[C@H](CC(=O)O)NC1=O)NC(=O)[C@H](CC(C)(C)C)NC(=O)[C@H](CC(=O)O)NC2=O` (stereo partly drawn) [I-1757, Ac-PL3-Asp-Npg-B5-Asp-TfeGA-Ala-Ala-Phe-Leu-PyrS2-3Thi-BztA-Val-NH2] reads 449 nM.
